Patent publication US8211646B1, “Methods of treating ovarian cancer by modulating SnoN” (University of South Florida, priority 2008, dated 2012)
Peptide text beside a SMILES is read from it. * marks the point of attachment. Cbz = O=C(OCc1ccccc1)*

Tests used:
Assay type in all cases: cell-based
[1] = tested on: EVI1 forms (MDS1/EVI1, EVI1, EVI1^Del190-515); details: combination with As2O3; HEY, OVCA429
Procedure: (§1) Proteins were resolved on an 8%, 12%, or 15% SDS-PAGE gel (as appropriate) and electrophoretically transferred to polyvinyldifluoride (PVDF) membranes. After blocking with 5% (w/v) milk in TBST (Tris-Buffered Saline containing 0.1% Tween-20) for one hour at room temperature, membranes were incubated with primary antibodies (at appropriate dilution) overnight at 4° C., followed by extensive washing and incubation for 1 hour with the appropriate horseradish peroxidase-conjugated secondary antibodies (BioRad, Hercules, Calif.). Blots were washed extensively. A rabbit polyclonal EVI1 antibody was obtained (1:3000 dilution, St. Jude's Children's Hospital, Memphis, Tenn.). SnoN rabbit polyclonal (1:1000 dilution), PML, and p21 SMURF2 rabbit polyclonal (1:500 dilution), MRP1 mouse monoclonal (1:500 dilution) and GAPDH mouse monoclonal (1:250 dilution) antibodies were obtained from Santa Cruz Biotechnology (Santa Cruz, Calif.). TGFβRII rabbit polyclonal (1:1000 dilution) antibody was obtained from Strategic Diagnostics (Newark, Del.). Smad2/3 rabbit polyclonal (1:1000 dilution), Beclin-1 rabbit polyclonal (1:1000 dilution), AKT rabbit polyclonal (1:1000 dilution), TAK1 rabbit polyclonal (1:1000 dilution), PARP rabbit polyclonal (1:1000 dilution), Beclin-1 rabbit polyclonal (1:1000 dilution), caspase-3 rabbit polyclonal (1:1000) which detects the pro-caspase form, and ATG5 rabbit polyclonal (1:1000 dilution), LC3-II rabbit polyclonal (1:1000 dilution) antibodies were obtained from Cell Signaling Technology (Danvers, Mass.). The HSP27 mouse monoclonal (1:1000 dilution) antibody was obtained from Stressgen (Ann Arbor, Mich.). Blots were developed using chemiluminescence substrates (Amersham Piscataway, N.J. or BioRad, Hercules, Calif.). Monoclonal PAI-1 antibody was obtained from BD Pharmingen. PSMAD2, total SMAD2/3, p-ERK, p-AKT, and total AKT antibodies were obtained from Cell Signaling Technology. A monoclonal antibody against Arkadia was obtained from Abnova (Taiwan).
(§2) Densitometric analysis was performed using the HP Scanjet 5590 and the Image J program (Image Processing and Analysis in Java, NIH Image Software). Bands were selected and the intensity values were normalized to those for GAPDH. The values are presented as fold-changes relative to control siRNA treated cells.
(§3) The clinical inhibitors As2O3, geldanamycin (17-AAG) (dissolved in dimethylsulfoxide [DMSO]), and MG132 (dissolved in DMSO) were obtained from Sigma-Aldrich (St. Louis, Mo.), Fisher Scientific (Pittsburgh, Pa.), and Alexis Biochemicals (Farmingdale, N.Y.), respectively. N-acetyl-L-cysteine (NAC; dissolved in media) and Bortezomib (PS-341; dissolved in DMSO) were obtained from Fisher Scientific. 3-Methyladenine (3-MA; dissolved in media) was obtained from MP Biomedicals (Solon, Ohio). Tiron (4,5-Dihydroxy-1,3-benzenedisulfonic acid, dissolved in media) was obtained from Fisher Scientific. zVAD-fmk (dissolved in DMSO) and bafilomycin A (dissolved in DMSO) was obtained from Axxora LLC (San Diego, Calif.). Bovine catalase was obtained from Sigma-Aldrich. HBED and Mn TBAP was obtained from ENZO Life Sciences (Farmingdale, N.Y.). Ovarian cells were plated in 6-well plates at 250,000 cells per well and grown in complete medium. The following day, the cells were treated with 5 μM MG132, As2O3 (between 2-50 μM), 17-AAG (between 2-50 μM), NAC (Fisher Scientific, between 25 μM to 1 mM), Tiron (between 25 μM to 1 mM), 3-MA (0.1 mM to 10 mM), or zVAD-fmk (25 μM to 100 μM). For control cells, DMSO (a final concentration of <0.5%) was added to compare appropriately to drugs dissolved in DMSO. After the appropriate incubation time (6 or 18 hours), cell lysates were collected, protein quantified, and SDS-PAGE/western analysis was performed. In addition, for selected studies, RNA was isolated, quantified, and used for qPCR analysis.

SnoN = assay: Western analysis of SnoN protein levels; set-up: SnoN basal protein levels: dose or concentration left out as unconfirmed
Procedure: as §1, §2
as §3, with “The following day, the cells were treated with 5 μM MG132, As2O3 (between 2-50 μM), 17-AAG (between 2-50 μM), NAC (Fisher Scientific, between 25 μM to 1 mM), Tiron (between 25 μM to 1 mM), 3-MA (0.1 mM to 10 mM), or zVAD-fmk (25 μM to 100 μM).” left out

EVI1 and TGFβRII RNA = assay: qPCR of EVI1 and TGFβRII RNA levels; details: 5 μM MG132, 18 hours
Procedure: RNA was isolated using the RNeasy Mini Kit (Qiagen, Valencia, Calif.) from normal, benign, stage I-IV ovarian patient samples and quantitative PCR was performed. A one-step RT-PCR Taqman master mix from Applied Biosystems (Foster City, Calif.) and primers for genes in the 3q26.2 amplicon were obtained using Genebank sequences as well as from Assays on Demand (Hs00180524_m1 (SnoN/SkiL)), with the following primers and probe sets.
EVI1 Exon III—(detects both EVI1 and MDS1/EVI1):
Primers/probe sequences for SnoN (Hs00180524_m1), TGFβRII (Hs00234253_m1), and LC3 (Hs00261291_m1) were obtained from Applied Biosystems (Assays by Design).
mRNA levels were determined using the One-Step-Plus Applied Biosystems Detection System or ABI PRISM 7700 Sequence Detection System using β-actin as a reference. […] 95° C. for 15 s followed by 60° C. for 1 min Using the correlative method, RNA-fold change in expression was calculated as Ct of gene—Ct of β-actin to generate ΔCt from which ΔCt of the normal sample was subtracted. […]
The clinical inhibitors As2O3, geldanamycin (17-AAG) (dissolved in dimethylsulfoxide [DMSO]), and MG132 (dissolved in DMSO) were obtained from Sigma-Aldrich (St. Louis, Mo.), Fisher Scientific (Pittsburgh, Pa.), and Alexis Biochemicals (Farmingdale, N.Y.), respectively. […] In addition, for selected studies, RNA was isolated, quantified, and used for qPCR analysis.

[2] = tested on: TAK1, SMAD2/3, TGFβRII, AKT, phospho-SMAD2; assay: Western analysis of other TGFβ signaling mediators
Procedure: as §1, §2, §3

In the case of `CC(C)C[C@@H](C=O)NC(=O)[C@H](CC(C)C)NC(=O)[C@H](CC(C)C)NC(=O)OCc1ccccc1` [MG132] (Cbz-Leu-Leu-Leu-aldehyde), the “EVI1 protein in As2O3-treated cells with added proteosome inhibitor” value [1] is reported as “recovered”, the “SnoN basal protein levels” value (SnoN; MG132, HEY and OVCA429, threshold between 3 and 6 h) is reported as “marked increase” and the “SnoN protein in drug-treated cells with added proteosome inhibitor” value (SnoN; combination with As2O3) is reported as “further increased”. For the same molecule, the “EVI1 and TGFβRII RNA levels” value (EVI1 and TGFβRII RNA) was “markedly reduce”, the “AKT, SMAD2/3, and TGFβRII protein levels” value ([2]; MG132 at 18 hours) was “significantly decreased” and the “TGFβRII protein in drug-treated cells with added proteosome inhibitor” value ([2]; combination with As2O3 (MG132: 6 hour drug treatment)) was “recovered”.
